In patent US5015661A, “Chromanes and their pharmaceutical compositions and methods” (Hoffmann-La Roche Inc., priority 1989, dated 1991):

target: superoxide-dependent, iron-promoted lipid peroxidation of native rat heart cardiac lipid liposomes; experiment: Lipid peroxidation inhibition (in vitro testing of antiperoxidative agents, ANTI-OX), hypoxanthine-xanthine oxidase-Fe3+.ADP, rat cardiac liposomes, MDA equivalents; format: biochemical; details: 60 min, 37° C., screened at 1.0 μM, IC50 determined if inhibition ≥ 50%, read-out: ANTI-OX IC-50
Experimental: The test system employs hypoxanthine-xanthine oxidase (XO)-Fe^3+. ADP as the free radical generator and purified, native rat-heart membrane phosphoglyceride in Hepes-KCl buffer, pH 7.4, as the substrate. Inhibition of superoxide-dependent, iron-promoted lipid peroxidation in the linear reaction phase (after 1 hour of reaction) is measured as the net formation of thiobarbituric acid (TBA)-reactive material. In this system, the TBA-reactive material, isolated by HPLC, is exclusively (>95%) malondialdehyde (MDA), a fragmentation end-product arising from fatty acyl hydroperoxides and cyclic endoperoxides. […]
a) Isolation and purification of Rat Cardiac Lipid
Conscious male Sprague-Dawley rats (~275g) maintained on a normal rodent diet were decapitated. The hearts were rapidly removed and perfused via the aorta with ice-cold 10 mM Hepes buffer, pH 7.4. The aorta and atria were removed, and the ventricular tissue was blotted and weighed (wet weight). The hearts were minced on ice with scissors and finally homogenized (100 mg tissue/ml ice-cold buffer) for 15 seconds (3×5 seconds) with a Tekmar Tissumizer at "maximal" setting. The homogenate was filtered through 4-ply cheesecloth, and homogenate lipids were extracted and purified by a modified Bligh-Dyer procedure (M.D. Marshall and M. Kates, Biochem. Biophys. Acta 260, 558 (1972). The cardiac lipids were stored in CHCl3 under nitrogen at -20° C. […]
b) Preparation of Cardiac Liposomes
Liposomes were prepared from extracted and purified, native rat heart cardiac lipid and were used as substrate for free-radical attack. Cardiac lipid (in CHCl3) was placed in a glass flask and evaporated to dryness under nitrogen at room temperature; the flask was gently rotated during evaporation to yield a thin, dry lipid film. The lipid was taken up in 10 mM Hepes-0.145M KCl, pH 7.4, and was resuspended by indirect an aerobic sonification for 15 minutes at room temperature. The liposome suspension was used immediately. […]
c) preparation of Fe^3+ -ADP Chelate
A chelate was formed in Hepes-KCl buffer between Fe^3+ (1.0mM FeCl3, final concentration) and ADP (10mM, final concentration) at pH 7.4 with stirring at room temperature. Chelation was allowed to proceed for 90 minutes prior to use. The chelate was prepared fresh for each days experiments to ensure iron solubility, effective chelation, and valence state. […]
d) Thiobarbituric Acid Reaction or Determination of Malondialdehvde Equivalents Malondialdehyde (MDA) equivalents were measured as thiobarbituric acid (TBA)-reactive material by the following modification of published methods. The reaction mixture. prepared fresh daily, contained water: BHT ([…] BHT in absolute ethanol): TBA (1.5% TBA in 0.2M Tris, pH 7.0) in the volume ratio 1:1:5. To each 1.0 ml of peroxidation reaction assayed (see below), 0.35 ml reaction mixture was added. After thorough mixing, the tubes were incubated in an 80° C. shaking water bath for 30 minutes. After this time, the tubes were plunged into an ice water bath, and the reaction was immediately stopped with 0.5 ml ice-cold 91% TCA followed by 2.0 ml CHCl3 After centrifugation for 30 minutes at 2000 rpm in a Sorval HL-8 rotor (4° C.), the absorbance of the washed, pink upper phase was read at 532 nm. A standard curve (0.8-40.0 nmol MDA) was run with every assay. For each curve, MDA was freshly prepared by acidification of 1,1,3,3 -tetraethoxypropane with 75% TCA-2.3N HCl (0.15 ml acid mixture with 1.0 ml suitably diluted tetraethoxypropane). Computer-assisted regression analysis of the standard curve was used to quantify the molar amounts of MDA equivalents in the experimental samples. […]
e) Lipid peroxidation Reaction
Cardiac liposomes were subjected to superoxidedependent. iron-promoted peroxidation in glass vessels to avoid the well-known antioxidant effects of many common polymerizing agents used to fabricate plastic labware. […]

Row | Structure (SMILES) | IC50 [nM]
1 | Cc1c(C)c2c(c(C)c1O)CCC(C)(CCc1ccc(-c3ccccn3)s1)O2 (racemic) [Example 65, rac-3,4-Dihydro-2,5,7,8-tetramethyl-2-{2-[5-(2-pyridinyl)-2-thienyl]ethyl}-2H-1-benzopyran-6ol] | > 1000
2 | Cc1c(C)c2c(c(C)c1O)CCC(C)(C#Cc1ccc3c(c1)N(C)C(=O)CO3)O2 (centres unmarked) [Example 48] | 750
3 | Cc1c(C)c2c(c(C)c1O)CCC(C)(CCc1ccc(O)c(O)c1)O2 (racemic) [Example 61, rac-4-[2-(3,4-Dihydro-6-hydroxy-2,5,7,8-tetramethyl-2H-1-benzopyran-2-yl)ethyl]-1,2-benzenediol] | > 1000
4 | Cc1c(C)c2c(c(C)c1O)CCC(C)(CCc1ccccn1)O2 (racemic) [Example 58, rac-3,4-Dihydro-2,5,7,8-tetramethyl-2-[2-(2-pyridinyl)ethyl]-2H-1-benzopyran-6-ol] | 700
5 | Cc1c(C)c2c(c(C)c1O)CC[C@](C)(C#Cc1cccs1)O2 [Example 5, (R)-3,4-Dihydro-2,5,7,8-tetramethyl-2-[(2-thienyl)ethynyl]-2H-1-benzopvran-6-ol] | 800
6 | Cc1c(C)c2c(c(C)c1O)CCC(C)(C#Cc1cccnc1)O2 (racemic) [Example 14, rac-3,4-Dihydro-2,5,7,8-tetramethyl-2-[(3-pyridinyl)ethynyl]-2H-1-benzopyran-6-ol] | 600
7 | COC(=O)c1cc(CCC2(C)CCc3c(C)c(O)c(C)c(C)c3O2)ccc1O (racemic) [Example 63, rac-5-[2-(3,4-Dihydro-6-hydroxy-2,5,7,8-tetramethyl-2H-1-benzopyran-2-yl)ethyl]-2-hydroxybenzoic acid methyl ester] | > 1000
8 | COc1cc(C=NO)cc(C#CC2(C)CCc3c(C)c(O)c(C)c(C)c3O2)c1O (racemic) [Example 30, rac-3-[(3,4-Dihydro-6-hydroxy-2,5,7,8-tetramethyl-2H-1-benzopyran-2yl)ethynyl]-4-hydroxy-5-methoxybenzaldehydeoxime] | > 1000
9 | COc1cccc(CCC2(C)CCc3c(C)c(O)c(C)c(C)c3O2)c1 (racemic) [Example 62, rac-3,4-Dihydro-2-[2-(3-methoxyphenyl)ethyl]-2,5,7,8-tetramethyl-2H-1-benzopyran-6-ol] | > 1000
10 | Cc1c(C)c2c(c(C)c1O)CCC(C)(CCc1cccnc1)O2 (racemic) [Example 59, rac-3,4-Dihydro-2,5,7,8-tetramethyl-2-[2-(3-pyridinyl)ethyl]-2H-1-benzopyran-6-ol] | 500
11 | Cc1c(C)c2c(c(C)c1O)CCC(C)(c1cc3ccccc3o1)O2 (racemic) [Example 50 (CH; H, H, H), rac-2-(2-Benzofuranyl)-3,4-dihydro-2,5,7,8-tetramethyl-2H-1-benzopyran-6-ol] | 1000
12 | COc1cc(C=O)cc(C#CC2(C)CCc3c(C)c(O)c(C)c(C)c3O2)c1O (racemic) [Example 28, rac-3-[(3,4-Dihydro-6-hydroxy-2,5,7,8-tetramethyl-2H-1-benzopyran-2-yl)ethynyl]-4-hydroxy-5-methoxybenzaldehyde] | > 1000
13 | Cc1c(C)c2c(c(C)c1O)CCC(C)(C#Cc1cccs1)O2 (racemic) [Example 4, rac-3,4-Dihydro-2,5,7,8-tetramethyl-2-[(2-thienyl)ethynyl]-2H-1-benzopyran-6-ol] | 900
14 | Cc1ccc2oc(C3(C)CCc4c(C)c(O)c(C)c(C)c4O3)cc2n1 (racemic) [Example 51, rac-3,4-Dihydro-2-(5-methylfuro[3,2[b]pyridin-2-yl)-2,5,7,8-tetramethyl-2H-1-benzopyran-6ol] | > 1000
15 | COc1ccc(CCC2(C)CCc3c(C)c(O)c(C)c(C)c3O2)cc1OC(C)=O (racemic) [Example 60, rac-2-{2-[3-(Acetyloxy)-4-methoxyphenyl]ethyl}-3,4-dihydro-2,5,7,8-tetramethyl-2H-1-benzopyran-6ol] | > 1000
16 | Cc1c(C)c2c(c(C)c1O)CC[C@@](C)(C#Cc1cccs1)O2 [Example 13, (S)-3,4-Dihydro-2,5,7,8-tetramethyl-2-[(2-thienyl)ethynyl]-2H-1-benzopyran-6-ol] | > 1000
17 | CCCc1c(O)c(C(C)=O)cc2cc(C3(C)CCc4c(C)c(O)c(C)c(C)c4O3)oc12 (racemic) [Example 53, rac-1-2-(3,4-Dihydro-6-hydroxy-2,5,7,8-tetramethyl-2H-1-benzopyran-2-yl)-6-hydroxy-7-propylbenzofuran-5-yl]ethanone] | 600

Now from value to compound:

Row | IC50 [nM] | Structure (SMILES)
18 | 550 | Cc1c(C)c2c(c(C)c1O)CCC(C)(C#Cc1ccc(-c3ccccn3)s1)O2 (racemic) [Example 26, rac-3,4-Dihydro-2,5,7,8-tetramethyl-2-{[5-(2-pyridinyl)-2-thienyl]ethynyl}-2H-1-benzopyran-6-ol]
19 | 700 | Cc1c(C)c2c(c(C)c1O)CCC(C)(C#Cc1ccccc1O)O2 (racemic) [Example 50 (2-HO-phenyl), rac-3,4-Dihydro-2-[(2-hydroxyphenyl)ethynyl]-2,5,7,8-tetramethyl-2H-1-benzopyran-6-ol]
20 | > 1000 | Cc1c(C)c2c(c(C)c1O)CCC(C)(C#Cc1cncc3ccccc13)O2 (racemic) [Example 34, rac-3,4-Dihydro-2-[(4-isoquinolinyl)ethynyl]-2,5,7,8-tetramethyl-2H-1-benzopyran-6-ol]
21 | 370 | Cc1c(C)c2c(c(C)c1O)CCC(C)(C#Cc1ccc(OCc3ccccc3)c(O)c1)O2 (racemic) [Example 43, rac-3,4-Dihydro-2-{[3-hydroxy-4-(phenylmethoxY)phenyl]-ethynyl}-2,5,7,8-tetramethyl-2H-1-benzopyran-6-ol]
22 | > 1000 | Cc1c(C)c2c(c(C)c1O)CCC(C)(C#Cc1ccc(F)c(F)c1)O2 (racemic) [Example 36, rac-2-[(3,4-Difluorophenyl)ethynyl]-3,4-dihydro-2,5,7,8-tetramethyl-2H-1-benzopyran-6-ol]
23 | 650 | Cc1c(C)c2c(c(C)c1O)CCC(C)(C#Cc1ccccc1)O2 (racemic) [Example 1, rac-3,4-Dihydro-2,5,7,8-tetramethyl-2-(phenylethynyl)-2H-1-benzopyran-6-ol]
24 | 800 | Cc1c(C)c2c(c(C)c1O)CCC(C)(C#Cc1ccc(-c3cccnc3)cc1)O2 (racemic) [Example 24, rac-3,4-Dihydro-2,5,7,8-tetramethyl-2-{[4-(3-pyridinyl)-phenyl]ethynyl}-2H-1-benzopyran-6-ol]
25 | 850 | Cc1c(C)c2c(c(C)c1O)CCC(C)(C#Cc1cnc3ccccc3c1)O2 (racemic) [Example 33, rac-3,4-Dihydro-2,5,7,8-tetramethyl-2-(3-quinolinylethynyl)-2H-1-benzopyran-6-ol]
26 | > 1000 | COc1cccc(C#CC2(C)CCc3c(C)c(O)c(C)c(C)c3O2)c1 (racemic) [Example 22, rac-3,4-Dihydro-2-(3-methoxyphenyl)ethynyl)-2,5,7,8-tetra-methyl-2H-1-benzopyran-6-ol]
